Results from patent US10174053B2, “2 substituted cephem compounds” (Glaxo Group Limited, priority 2012, dated 2019).
Values after ≈ are worked out from the molar mass of the structure shown.

Experiments:
Test in all cases: In vitro antimicrobial activity, MIC by broth microdilution (CLSI)
Format in all cases: cell-based
E. Coli JMI1890 = conditions: Escherichia coli; PER-1, TEM-1, ESBL producing strain; 5×10^5 cfu/mL; cation-adjusted Iso-Sensitest broth containing human Apo-transferrin; read-out: Minimum Inhibitory Concentration (MIC) E. Coli JMI:1890
Outline: (§1)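 MIC (μg/mL) by CLSI broth microdilution, inoculum 5×10^5 cfu/mL, in cation-adjusted Iso-Sensitest broth containing human apo-transferrin.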

A. baumannii JMI7 = conditions: Acinetobacter baumannii, JMI7; PER-1, OXA-23, 51, ESBL and OXA-type carbapenemase producing strain; 5×10^5 cfu/mL; cation-adjusted Iso-Sensitest broth containing human Apo-transferrin; read-out: Minimum Inhibitory Concentration (MIC) A. baumannii JMI:7
Outline: as §1

A. baumannii JMI2346 = conditions: Acinetobacter baumannii, JMI2346; OXA-51, TEM, ESBL and OXA-type carbapenemase producing strain; 5×10^5 cfu/mL; cation-adjusted Iso-Sensitest broth containing human Apo-transferrin; read-out: Minimum Inhibitory Concentration (MIC) A. baumannii JMI:2346
Outline: as §1

K. pneumoniae SR01358 = conditions: Klebsiella pneumoniae, SR01358; KPC-2, ESBL and KPC-type carbapenemase producing strain; 5×10^5 cfu/mL; cation-adjusted Iso-Sensitest broth containing human Apo-transferrin; read-out: Minimum Inhibitory Concentration (MIC) K. pneumoniae SR01358
Outline: as §1

Row | SMILES | MIC (E. Coli JMI1890) | MIC (A. baumannii JMI7) | MIC (A. baumannii JMI2346) | MIC (K. pneumoniae SR01358)
1 | C[C@@H]1S[C@@H]2[C@H](NC(=O)/C(=N\OC(C)(C)C(=O)[O-])c3csc(N)n3)C(=O)N2C(C(=O)[O-])=C1C[N+]12CCC(CNC(=O)C(=O)c3cc(O)c(O)c(Cl)c3)(CC1)CC2.[Na+] [Compound I-14] | 1 µg/mL | 2 µg/mL | 8 µg/mL | ≤ 0.031 µg/mL
2 | C[C@@H]1S[C@@H]2[C@H](NC(=O)/C(=N\OC(C)(C)C(=O)[O-])c3csc(N)n3)C(=O)N2C(C(=O)[O-])=C1C[N+]1(CCNC(=O)C(=O)c2cc(O)c(O)c(F)c2)CCCC1.[Na+] [Compound I-84] | 2 µg/mL | 1 µg/mL | 16 µg/mL | ≤ 0.031 µg/mL
3 | C[C@@H]1S[C@@H]2[C@H](NC(=O)/C(=N\OC(C)(C)C(=O)[O-])c3csc(N)n3)C(=O)N2C(C(=O)[O-])=C1C[N+]1(CCNC(=O)C(=O)c2ccc(O)c(O)c2Cl)CCCC1.[Na+] [Compound I-74] | 0.25 µg/mL | 0.25 µg/mL | 4 µg/mL | ≤ 0.031 µg/mL
4 | C[C@@H]1S[C@@H]2[C@H](NC(=O)/C(=N\OC(C)(C)C(=O)O)c3csc(N)n3)C(=O)N2C(C(=O)[O-])=C1C[N+]12CCC(Cn3ncc4cc(O)c(O)cc4c3=O)(CC1)C2 [Compound I-126] | 0.063 µg/mL (≈ 0.0819 µM) | 0.25 µg/mL (≈ 0.325 µM) | 0.5 µg/mL (≈ 0.65 µM) | ≤ 0.031 µg/mL
5 | CCn1cc(C(=O)N[C@H]2C[C@H]3CC[C@@H](C2)[N@+]3(C)CC2=C(C(=O)O)N3C(=O)[C@@H](NC(=O)/C(=N\OC(C)(C)C(=O)[O-])c4csc(N)n4)[C@H]3S[C@H]2C)c(=O)c2c(Cl)c(O)c(O)cc21 [Compound I-121] | 0.063 µg/mL (≈ 0.071 µM) | 0.5 µg/mL (≈ 0.563 µM) | 2 µg/mL (≈ 2.25 µM) | ≤ 0.031 µg/mL
6 | C[C@@H]1S[C@@H]2[C@H](NC(=O)/C(=N\OC(C)(C)C(=O)[O-])c3csc(N)n3)C(=O)N2C(C(=O)O)=C1C[N+]12CCC(CNC(=O)/C(=N\O)c3cc(O)c(O)c(F)c3)(CC1)CC2 [Compound I-136] | 0.5 µg/mL (≈ 0.611 µM) | 1 µg/mL (≈ 1.22 µM) | 2 µg/mL (≈ 2.44 µM) | ≤ 0.031 µg/mL
7 | C[C@@H]1S[C@@H]2[C@H](NC(=O)/C(=N\OC(C)(C)C(=O)[O-])c3csc(N)n3)C(=O)N2C(C(=O)O)=C1C[N+]1(CCNN2C(=O)c3cc(O)c(O)cc3C2=O)CCCC1 [Compound I-26] | 0.5 µg/mL (≈ 0.647 µM) | 0.5 µg/mL (≈ 0.647 µM) | 4 µg/mL (≈ 5.18 µM) | ≤ 0.031 µg/mL
8 | C[C@@H]1S[C@@H]2[C@H](NC(=O)/C(=N\OC(C)(C)C(=O)O)c3csc(N)n3)C(=O)N2C(C(=O)[O-])=C1C[N+]12CCC(Cn3cnc4cc(O)c(O)c(Cl)c4c3=O)(CC1)CC2 [Compound I-161, (4S,6R,7R)-7-((Z)-2-(2-aminothiazol-4-yl)-2-(((2-carboxypropan-2-yl)oxy)imino)acetamido)-3-((4-((5-chloro-6,7-dihydroxy-4-oxoquinazolin-3(4H)-yl)methyl)quinuclidin-1-ium-1-yl)methyl)-4-methyl-8-oxo-5-thia-1-azabicyclo[4.2.0]oct-2-ene-2-carboxylate] | 0.125 µg/mL (≈ 0.153 µM) | 0.25 µg/mL (≈ 0.306 µM) | 4 µg/mL (≈ 4.89 µM) | ≤ 0.031 µg/mL
9 | C[C@@H]1S[C@@H]2[C@H](NC(=O)/C(=N\OC(C)(C)C(=O)[O-])c3csc(N)n3)C(=O)N2C(C(=O)O)=C1C[N+]1(CCNC(=O)c2ccc(O)c(O)c2Cl)CCCCC1 [Compound I-43] | 0.5 µg/mL (≈ 0.641 µM) | 1 µg/mL (≈ 1.28 µM) | 4 µg/mL (≈ 5.13 µM) | 0.063 µg/mL (≈ 0.0807 µM)
10 | C[C@@H]1S[C@@H]2[C@H](NC(=O)/C(=N\OC(C)(C)C(=O)[O-])c3csc(N)n3)C(=O)N2C(C(=O)[O-])=C1C[N+]12CCC(CC1)N(C(=O)c1c[nH]c3cc(O)c(O)cc3c1=O)CC2.[Na+] [Compound I-174, (4S,6R,7R)-7-((Z)-2-(2-aminothiazol-4-yl)-2-(((2-carboxypropan-2-yl)oxy)imino)acetamido)-3-((4-(6,7-dihydroxy-4-oxo-1,4-dihydroquinoline-3-carbonyl)-1,4-diazabicyclo[3.2.2]nonan-1-ium-1-yl)methyl)-4-methyl-8-oxo-5-thia-1-azabicyclo[4.2.0]oct-2-ene-2-carboxylate, Sodium salt] | 4 µg/mL | 0.25 µg/mL | 1 µg/mL | ≤ 0.031 µg/mL
